This is an account of results in patent US20240067662A1, “KRAS INHIBITORS” (Bristol-Myers Squibb Company, priority 2022, published 2024).

The target in the assay is GMPPNP-loaded KRAS G12C (Homo sapiens, UniProt P01116, G12C). The assay is described as follows: KRAS G12C RAF Disruption Assay (HTRF). The conditions noted are these: recombinant GMPPNP-loaded KRAS G12C (5 nM), 20 min with compound; GST-RAF1 RBD (9 nM); HTRF signal; read-out: KRASG12C RAF Disruption Assay (IC50). The class given is biochemical. The essentials: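 GMPPNP-loaded KRAS G12C (5 nM) was preincubated with compound for 20 min at room temperature in Tris pH 7.5 buffer with NaCl, MgCl2, DTT and BSA. GST-RAF1 RBD (9 nM) was added for 20 min, then SA-Tb (0.25 nM) for 3 h. IC50 was fitted from the HTRF 520/495 ratio.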
GMPPNP-loaded KRAS G12C, sequence (P01116 1-188 isoform P01116-2 G12C): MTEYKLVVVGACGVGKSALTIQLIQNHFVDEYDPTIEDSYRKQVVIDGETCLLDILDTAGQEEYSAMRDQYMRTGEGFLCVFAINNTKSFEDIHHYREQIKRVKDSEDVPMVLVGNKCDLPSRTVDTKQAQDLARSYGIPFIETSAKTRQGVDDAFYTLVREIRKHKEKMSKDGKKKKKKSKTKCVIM
Consider `C#Cc1c(F)ccc2cc(O)cc(-c3ncc4c(N5C[C@H]6CC[C@@H](C5)N6C(=O)/C(F)=C/c5nccn5C)nc(OC[C@@]56CCCN5C[C@H](F)C6)nc4c3F)c12` [Compound 5, (Z)-1-((1R, 5S)-3-(7-(8-ethynyl-7-fluoro-3-hydroxynaphthalen-1-yl)-8-fluoro-2-(((2R, 7aS)-2-fluorotetrahydro-1H-pyrrolizin-7a(5H)-yl)methoxy)pyrido[4,3-d]pyrimidin-4-yl)-3,8-diazabicyclo[3.2.1]octan-8-yl)-2-fluoro-3-(1-methyl-1H-imidazol-2-yl)prop-2-en-1-one], for which the IC50 worked out at 79 nM.
As to `C#Cc1c(F)ccc2cc(O)cc(-c3ncc4c(N5CCN(C(=O)/C(F)=C/c6ncco6)CC5)nc(OC[C@@]56CCCN5C[C@H](F)C6)nc4c3F)c12` [Example 54, (Z)-1-(4-(7-(8-ethynyl-7-fluoro-3-hydroxynaphthalen-1-yl)-8-fluoro-2-(((2R, 7aS)-2-fluorotetrahydro-1H-pyrrolizin-7a(5H)-yl)methoxy)pyrido[4,3-d]pyrimidin-4-yl)piperazin-1-yl)-2-fluoro-3-(oxazol-2-yl)prop-2-en-1-one], the IC50 is 5 nM.
As for `C#Cc1c(F)ccc2cc(O)cc(-c3ncc4c(N5C[C@H]6CC[C@@H](C5)N6C(=O)/C(F)=C/c5nccs5)nc(OC[C@@]56CCCN5C[C@H](F)C6)nc4c3F)c12` [Compound 1, (Z)-1-((1R, 5S)-3-(7-(8-ethynyl-7-fluoro-3-hydroxynaphthalen-1-yl)-8-fluoro-2-(((2R, 7aS)-2-fluorotetrahydro-1H-pyrrolizin-7a(5H)-yl)methoxy)pyrido[4,3-d]pyrimidin-4-yl)-3,8-diazabicyclo[3.2.1]octan-8-yl)-2-fluoro-3-(thiazol-2-yl)prop-2-en-1-one], the figure is 27 nM; as for `C#Cc1c(F)ccc2cc(O)cc(-c3ncc4c(N5CCN(C(=O)/C(F)=C/c6ccccn6)CC5)nc(OC[C@@H]5CCCN5CCCn5cc(CNC(=O)CCCC[C@@H]6SC[C@@H]7NC(=O)N[C@@H]76)nn5)nc4c3F)c12` [Compound 112, N-((1-(3-((S)-2-(((7-(8-ethynyl-7-fluoro-3-hydroxynaphthalen-1-yl)-8-fluoro-4-(4-((Z)-2-fluoro-3-(pyridin-2-yl)acryloyl)piperazin-1-yl)pyrido[4,3-d]pyrimidin-2-yl)oxy)methyl)pyrrolidin-1-yl)propyl)-1H-1,2,3-triazol-4-yl)methyl)-5-((3aS,4S,6aR)-2-oxohexahydro-1H-thieno[3,4-d]imidazol-4-yl)pentanamide], under 2 nM; as for `N#CC[C@H]1CN(c2nc(OC[C@@]34CCCN3C[C@H](F)C4)nc3c(F)c(-c4cc(F)ccc4F)ncc23)CCN1C(=O)/C(F)=C/c1ccccn1` [Example 40, 2-((S)-4-(7-(2,5-difluorophenyl)-8-fluoro-2-(((2R, 7aS)-2-fluorotetrahydro-1H-pyrrolizin-7a(5H)-yl)methoxy)pyrido[4,3-d]pyrimidin-4-yl)-1-((Z)-2-fluoro-3-(pyridin-2-yl)acryloyl)piperazin-2-yl)acetonitrile], 880 nM.
With `C#Cc1cccc2cccc(-c3ncc4c(N5CCN(C(=O)/C(F)=C/c6nccs6)C[C@H]5C)nc(OC[C@@]56CCCN5C[C@H](F)C6)nc4c3F)c12` [Example 76, (Z)-1-((3R)-4-(7-(8-ethynylnaphthalen-1-yl)-8-fluoro-2-(((2R, 7aS)-2-fluorotetrahydro-1H-pyrrolizin-7a(5H)-yl)methoxy)pyrido[4,3-d]pyrimidin-4-yl)-3-methylpiperazin-1-yl)-2-fluoro-3-(thiazol-2-yl)prop-2-en-1-one] the figure was 590 nM; with `CN1CCC[C@H]1COc1nc(N2CCN(C(=O)/C(F)=C/c3ccccn3)[C@@H](CC#N)C2)c2cnc(-c3cccc4cccc(Cl)c34)c(F)c2n1` [Compound 19A, 2-((S)-4-(7-(8-chloronaphthalen-1-yl)-8-fluoro-2-(((S)-1-methylpyrrolidin-2-yl)methoxy)pyrido[4,3-d]pyrimidin-4-yl)-1-((Z)-2-fluoro-3-(pyridin-2-yl)acryloyl)piperazin-2-yl)acetonitrile], 59 nM.
